Test results taken from publication PMC10254852, “Design, Synthesis and Anticancer Evaluation of Nitroimidazole Radiosensitisers” (Molecules, 2023).
Like-named read-outs stand apart in the source and are kept apart here.

Columns and labels:
HCT116/54C cells [1] = assay: In vitro radiosensitisation under anoxia, clonogenic survival; assay type: cell-based, human; conditions: compound 1 mM, radiation dose for 1% survival/radiation dose for 1% survival with compound, mean ± SEM
Description: Next, we evaluated in vitro radiosensitisation by using a representative subset of nitroimidazole compounds in HCT116/54C cells with a clonogenic survival endpoint. Radiosensitisation was determined by treating cells under anoxia with a range of radiation doses alone and with compounds at equimolar doses (1 mM). Sensitiser enhancement ratios (SER) were calculated as the ratio of radiation dose required for 1% clonogenic survival alone or with compound (Table 3).
Cells were seeded onto 96-well plates at 10^5 cells per well and allowed to attach for 2 h. […] The plates were irradiated (Eldorado 78 ^60Co teletherapy unit, ~2 Gy/min) with 15 Gy under anoxia at room temperature for SR experiments. A metal wedge placed on the top of the metal chamber was used to achieve a graduated radiation dose across the plate, varying from 7 to 29 Gy, calibrated by Fricke dosimetry with ammonium thiocyanate as previously described for SER experiments. The control plate (compound alone, no radiation) was left inside the anaerobic chamber at room temperature during the irradiation period. After treatment, the cells were trypsinized and suspended in usual media + 1% penicillin-streptomycin (ThermoFisher Scientific), and 10-fold serial dilutions were plated for clonogenic survival. After 10 days, plates were stained with methylene blue (2 g/L in EtOH/H2O, 1:1 v/v) and colonies with more than 50 cells were counted. The surviving fraction (SF) was determined as: SF = PE(irradiated)/PE(control) where the plating efficiency (PE) = (No. of colonies)/(No. of cells plated). SF was plotted against radiation dose. Survival ratios (SR) were calculated: SR = (cell survival with radiation)/(cell survival with drug + radiation). Sensitizer enhancement ratios (SER) were calculated: SER = (radiation dose for 1% survival without compound)/(radiation dose for 1% survival with compound).

UT-SCC-74B cells = assay: In vitro cytotoxicity, 4 h exposure oxic/anoxic, 5-day regrowth, sulforhodamine B; assay type: cell-based, human; conditions: for IC50: Homo sapiens; for HCR: IC50(oxic)/IC50(anoxic)
Source text: (§1) This allowed derivation of hypoxia cytotoxicity ratios (HCR) as IC50(oxic)/IC50(anoxic) in an HCT116 subclone HCT116/54C and two HNSCC cell lines, FaDu and UT-SCC-74B (Table 2).
(§2) HCT116/54C is an HCT116 subline that originated from a mixed culture with UT-SCC-54C cells, which was supplied alongside UT-SCC-74B by Prof. Bradly Wouters (University Health Network, Toronto, ON, Canada). HCT116/54C and UT-SCC-74B cells were passaged in minimum essential media (MEM, ThermoFisher Scientific, Waltham, MA, USA) with 10% foetal calf serum (FCS, Moregate Biotech, Hamilton, New Zealand), 4.5 mg/mL D-glucose (Sigma-Aldrich, St. Louis, MO, USA) and 20 mM HEPES (Sigma-Aldrich). FaDu cells were sourced from American Type Culture Collection and cultured in αMEM (ThermoFisher Scientific) with 10% FCS. All cell lines were confirmed mycoplasma-free by PlasmoTest (InvivoGen, San Diego, CA, USA) and were derived from STR-authenticated cryopreserved stocks. Log-phase cells were seeded into 96-well plates at 800 cells/well for HCT116/54C and 1500 cells/well for FaDu. […] After drug washout, cells were grown and stained as for the oxic IC50 assays. The hypoxic cytotoxicity ratio HCR was determined as HCR = IC50(oxic)/IC50(anoxic).

HCT116/54C cells [2] = assay: as above; assay type: cell-based, human; conditions: HCT116/54C; for HCR: IC50(oxic)/IC50(anoxic); for IC50: Homo sapiens
Source text: as §1, §2

FaDu cells = assay: as above; assay type: cell-based; conditions: for IC50: Homo sapiens; for HCR: IC50(oxic)/IC50(anoxic)
Source text: as §1, §2

HCT116/54C tumours = assay: Tumour radiosensitisation: ex vivo clonogenic assay; assay type: in vivo, NIH-III mice; conditions: for Sensitisation Ratio: 2.2 mmol/kg i.v. 5 min prior to 10 Gy radiation, surviving fraction after radiation/surviving fraction after drug + radiation; for enhancement of tumour killing of radiotherapy (RAD vs drug + RAD): 2.2 mmol/kg i.v. + 10 Gy, one-way ANOVA
Description: Specific pathogen-free six- to eight-week-old female NIH-III mice, bred in the Vernon Jansen Unit, University of Auckland, were used for animal experiments. Animals had ad libitum access to food and water and were maintained in microisolator cages on a 12 h light/dark cycle. All treatments were administered by i.v. injection at a dose of 2.2 mmol/kg and injection volume of 10 mL/kg. Compounds 2, 34 and 38 were administered as solutions in saline containing 1% DMSO or for 9–12 as solutions in saline containing 2 molar equivalents of NaHCO3. Control animals received an i.v. injection of saline at 10 mL/kg. All animal experiments were conducted under the auspices of the University of Auckland Animal Ethics Committee (approval 1781).
Compounds were evaluated for in vivo radiosensitisation of hypoxic cells in HCT116/54C and UT-SCC-74B human tumour xenografts using clonogenic survival as an endpoint, using previously report methods. Tumours were grown subcutaneously on the flanks of NIH-III mice by injecting 5 × 10^6 HCT116/54C cells or UT-SCC-74B cells. Once tumours reached a volume of approximately 250 mm^3, mice were randomly assigned to 4 treatment groups and treated with: (A) vehicle control, (B) 10 Gy RAD only, (C) sensitiser only, or (D) sensitiser given before 10 Gy RAD. Drugs were administered as a single i.v. dose at 2.2 mmol/kg. […] Tumours were excised 18 h after treatment, and tumour cells were dissociated enzymatically and plated to determine the number of surviving (clonogenic) cells per gram of tumour tissue. SF and SR were calculated as described above. Statistical significance of drug effects was tested using one-way ANOVA with Sidak tests for multiple comparisons vs. radiation alone (Table 5).

[3] = set-up: method as in PMID 29253343; conditions: NIH-III mice, 2.2 mmol/kg i.v., cited from earlier work; for Cmax: read-out: Plasma Cmax
[4] = anoxic, 4 h exposure, mean ± SEM, n = 3–4, read-out: IC50 Anoxic
[5] = oxic, 4 h exposure, mean ± SEM, n = 3–4, read-out: IC50 Oxic

Row | SMILES | SER at 1 mM (HCT116/54C cells [1]) | HCR (UT-SCC-74B cells) | HCR (HCT116/54C cells [2]) | HCR (FaDu cells) | IC50 (HCT116/54C cells [2]; [4]) [mM] | IC50 (HCT116/54C cells [2]; [5]) [mM] | IC50 (FaDu cells; [4]) [mM] | IC50 (FaDu cells; [5]) [mM] | IC50 (UT-SCC-74B cells; [4]) [mM] | IC50 (UT-SCC-74B cells; [5]) [mM] | other results
1 | COCC(O)Cn1ccnc1[N+](=O)[O-] (stereo not drawn) [Compound 1, misonidazole, reference compound] | 1.46 ± 0.01 | >11.9 | >16.8 | >15.4 |  |  |  |  |  |  | IC50 (UT-SCC-74B cells; 4 h, read-out: IC50 Anoxic): 2.1 ± 0.6 mM; IC50 (UT-SCC-74B cells; 4 h, read-out: IC50 Oxic): > 25 mM; IC50 (HCT116/54C cells [2]; 4 h, read-out: IC50 Anoxic): 1.5 ± 0.3 mM; IC50 (HCT116/54C cells [2]; 4 h, read-out: IC50 Oxic): > 25 mM; IC50 (HCT116/54C cells [2]; read-out: hypoxic IC50): 0.5 mM; IC50 (FaDu cells; 4 h, read-out: IC50 Anoxic): 1.3 ± 0.2 mM; IC50 (FaDu cells; 4 h, read-out: IC50 Oxic): > 20 mM
2 | O=[N+]([O-])c1cncn1CCN1CCOCC1 [Compound 3, nimorazole, reference compound] | 1.20 ± 0.01 |  |  | >1.5 | > 20 | > 25 | 13.2 ± 3.4 | > 20 |  |  | 
3 | O=[N+]([O-])c1nccn1CCS(=O)(=O)NCCO [Compound 6] | 1.39 ± 0.01 | >6.6 | >7.3 | 14.9 | 2.2 ± 0.04 | > 16 | 1.2 ± 0.2 | 17.8 ± 2.2 | 3 ± 0.6 | > 20 | 
4 | O=[N+]([O-])c1cncn1CCS(=O)(=O)NCCO [Compound 8] | 1.27 ± 0.00 | >2.0 | >2.4 | >3.6 | 9 ± 0.9 | > 22 | 6.6 ± 0.6 | > 24 | 10.9 ± 1.3 | > 22 | 
5 | O=[N+]([O-])c1nccn1CCS(=O)(=O)NCCOP(=O)(O)O [Compound 10] |  |  |  |  |  |  |  |  |  |  | Sensitisation Ratio (HCT116/54C tumours): 1.78; enhancement of tumour killing of radiotherapy (RAD vs drug + RAD) (HCT116/54C tumours): not; AUC [3]: 640 µM·h; T1/2 [3]: 2.21 h; Cmax [3]: 1140 µM
6 | O=[N+]([O-])c1cncn1CS(=O)(=O)NCCOP(=O)(O)O [Compound 11] |  |  |  |  |  |  |  |  |  |  | Sensitisation Ratio (HCT116/54C tumours): 1.85; enhancement of tumour killing of radiotherapy (RAD vs drug + RAD) (HCT116/54C tumours): not; AUC [3]: 710 µM·h; T1/2 [3]: 1.72 h; Cmax [3]: 1100 µM
7 | O=[N+]([O-])c1cncn1CCS(=O)(=O)NCCOP(=O)(O)O [Compound 12] |  |  |  |  |  |  |  |  |  |  | Sensitisation Ratio (HCT116/54C tumours): 3.32; enhancement of tumour killing of radiotherapy (RAD vs drug + RAD) (HCT116/54C tumours): significantly enhanced the tumour killing of radiotherapy
8 | COCCNS(=O)(=O)Cn1ccnc1[N+](=O)[O-] [Compound 33] |  | 19.9 | >51 | 46.6 | 0.12 ± 0.002 | > 6.2 | 0.09 ± 0.01 | 4 ± 1.2 | 0.19 ± 0.02 | 3.7 ± 0.8 | 
9 | COCCNS(=O)(=O)CCn1ccnc1[N+](=O)[O-] [Compound 35] |  |  | >16 | 20.4 | 0.97 ± 0.16 | > 16 | 0.81 ± 0.12 | 16.5 ± 1.6 |  |  | 
10 | O=[N+]([O-])c1nccn1CCS(=O)(=O)NCCN1CCOCC1 [Compound 36] | 1.57 ± 0.00 | 7.6 | 12.9 | 10.6 | 0.71 ± 0.13 | 9.2 ± 1.1 | 0.69 ± 0.04 | 7.3 ± 0.6 | 1.6 ± 0.3 | 11.9 ± 1.5 | 
11 | COCCNS(=O)(=O)Cn1cncc1[N+](=O)[O-] [Compound 37] |  |  | 2.9 | 5.7 | 4 ± 0.7 | 11.4 ± 1 | 2.1 ± 0.04 | 12 ± 1.9 |  |  | 
12 | COCCNS(=O)(=O)CCn1cncc1[N+](=O)[O-] [Compound 39] |  |  | >1.9 | >2.6 | 13 ± 1.3 | > 25 | 7.2 ± 0.2 | > 19 |  |  | 
13 | COCCNS(=O)(=O)CCn1c([N+](=O)[O-])cnc1C [Compound 40] |  |  | >1.8 | >2.7 | 11 ± 0.4 | > 20 | 8 ± 0.5 | > 22 |  |  | 
14 | Cc1ncc([N+](=O)[O-])n1CCS(=O)(=O)NCCO [Compound 41] | 1.16 ± 0.01 | >1.5 | >1.1 |  | 15.5 ± 2.6 | > 18 | > 22 | > 25 | 13.7 ± 3.7 | > 21 | 
15 | Cc1ncc([N+](=O)[O-])n1CCS(=O)(=O)NCCN1CCOCC1 [Compound 42] | 1.16 ± 0.01 | 1.4 | 1.8 | 1.3 | 4.3 ± 0.2 | 7.6 ± 0.4 | 7.8 ± 0.2 | 9.8 ± 1.2 | 6.6 ± 0.6 | 8.9 ± 1.6 | 
16 | Cc1ncc([N+](=O)[O-])n1CCS(=O)(=O)N1CCN(C)CC1 [Compound 43] |  |  | 1.2 | 1.6 | 9.9 ± 0.3 | 11.7 ± 1.3 | 8.6 ± 0.6 | 13.3 ± 2.5 |  |  | 
17 | Cc1ncc([N+](=O)[O-])n1CCS(=O)(=O)NCCCN1CCOCC1 [Compound 44] |  | 1.9 | >2.0 | >2.0 | 10.3 ± 1.5 | > 21 | 7.8 ± 0.7 | > 16 | 7.1 ± 1.5 | 13.2 ± 2 | 
18 | Cc1ncc([N+](=O)[O-])n1CCS(=O)(=O)NCCN1CCCCC1 [Compound 45] |  |  | 5.0 | 2.8 | 2.4 ± 0.4 | 11.8 ± 1.5 | 1.7 ± 0.4 | 4.8 ± 0.3 |  |  | 
19 | Cc1ncc([N+](=O)[O-])n1CCS(=O)(=O)N1CCC(N(C)C)CC1 [Compound 46] |  | 4.4 | 8.6 | 7.3 | 2 ± 0.3 | 16.9 ± 1.4 | 1.3 ± 0.1 | 9.5 ± 2 | 1.9 ± 0.2 | 8.1 ± 0.9 | 
